# Measured values: patent US10626094B2 (La Jolla Institute of Allergy & Immunology, priority 2014, dated 2020)
# Target: LMPTP-A (Low Molecular Weight Protein Tyrosine Phosphatase-A) enzyme (Homo sapiens (Human), UniProt P24666)
# Assay: LMPTP primary screening / LMPTP (OMFP) enzyme inhibition assay, fluorescence intensity
# Format: biochemical
# Details: LMPTP-A, OMFP substrate, method of Example 2; read-out: IC50
# Procedure: This assay attempts to identify inhibitors of the LMPTP-A (Low Molecular Weight Protein Tyrosine Phosphatase-A) enzyme. It is run in 1536-well format and is measured via fluorescence intensity.
# A listing of materials is provided: • Item, source, catalog no. • LMPTP-A Enzyme Stock Solution (4.22 mg/ml or 206.8 μM), SBMRI Protein Facility, • N/A • OMFP, Sigma, M2629-100MG • Bis-Tris pH 6.0, Fisher Sci, BP301-100 • Triton-X 100, Sigma, T9284 • DTT, Sigma, D9779 • Mol. Grade Water, Mediatech, Inc., 46-000-CM • 1536-well black High base opaque bottom plate, Nexus Biosystems, 00019120
# Final assay conditions are: • 0.625 nM LMPTP-A Enzyme • 400 μM OMFP • 50 mM Bis-Tris pH 6.0 • 1 mM DTT • 0.01% Triton-X 100 • 20 μM test compound • 3% DMSO (2% from substrate and 1% from compounds) • 6 μL reaction volume • 50 minutes incubation at room temp
# Assay Procedure • 1. Prepare Reagents as described in section F. Recipe. • 2. Using LabCyte Echo, transfer 60 nL from 2 mM test compound source plate into assay plate Col. 5-48 (final concentration of test compounds is 20 μM). 60 nL of DMSO should be transferred to col. 1-4 for positive and negative control wells. • 3. Spin plates at 1000 rpm for 1 minute in centrifuge. • 4. […] Using the Bioraptr, add 3 μL/well of enzyme solution to col. 3-48. • 6. Using the Bioraptr, add 3 μL/well of substrate solution to col. 1-48. • 7. Spin plates at 1000 rpm for 1 minute in centrifuge. • 8. Incubate plates in the dark at room temperature for 50 minutes. • 9. Read plates on PerkinElmer Viewlux using a FI protocol.
# Sequence of LMPTP-A (Low Molecular Weight Protein Tyrosine Phosphatase-A) enzyme (P24666 whole entry): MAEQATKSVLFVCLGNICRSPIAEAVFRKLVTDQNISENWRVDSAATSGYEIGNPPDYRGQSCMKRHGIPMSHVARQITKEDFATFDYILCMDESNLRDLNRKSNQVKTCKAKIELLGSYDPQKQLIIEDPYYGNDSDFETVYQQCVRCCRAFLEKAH
row,IC50 [µM],SMILES
1,0.801 to 5,"N#Cc1ccccc1-c1cc(Nc2cccc(CN3CCCC3)c2)c2ccccc2n1 [Compound I2, 2-(4-{[3-(pyrrolidinylmethyl)phenyl]amino}-2-quinolyl)benzenecarbonitrile]"
2,0.801 to 5,"NC(=O)c1ccc(-c2cc(Nc3cccc(CC4CCNCC4)c3)c3ccccc3n2)cc1 [Compound I3, 4-(4-{[3-(4-piperidylmethyl)phenyl]amino}-2-quinolyl)benzamide]"
3,> 5,"NC(=O)c1ccc(-c2cc(Nc3ccc(CN4CCCCC4)cc3)c3ccccc3n2)cc1 [Compound I6, 4-(4-{[4-(piperidylmethyl)phenyl]amino}-2-quinolyl)benzamide]"
4,0.801 to 5,Fc1cc(Cl)ccc1-c1cc(Nc2cccc(CN3CCCC3)c2)c2ccccc2n1 [Compound I10]
5,0.801 to 5,"Clc1cccc(-c2cc(Nc3ccc(CN4CCCCC4)cc3)c3ccccc3n2)c1 [Compound I11, [2-(3-chlorophenyl)(4-quinolyl)][4-(piperidylmethyl)phenyl]amine]"
6,0.801 to 5,"Clc1cccc(-c2cc(Nc3cccc(CN4CCCC4)c3)c3ccccc3n2)c1 [Compound I12, [2-(3-chlorophenyl)(4-quinolyl)][3-(pyrrolidinylmethyl)phenyl]amine]"
7,0.801 to 5,"CN1CCCC1CCNc1cc(-c2cccc(Cl)c2)nc2ccccc12 (centres unmarked) [Compound I15, [2-(3-chlorophenyl)(4-quinolyl)][2-(1-methylpyrrolidin-2-yl)ethyl]amine]"
8,0.801 to 5,"CN(C)Cc1ccc(Nc2cc(-c3cccc(Cl)c3)nc3ccccc23)cc1 [Compound I16, [(4-{[2-(3-chlorophenyl)(4-quinolyl)]amino}phenyl)methyl]dimethylamine]"
9,0.801 to 5,"CN1CCC(Cc2cccc(Nc3cc(-c4cccc(Cl)c4)nc4ccccc34)c2)CC1 [Compound I18, [2-(3-chlorophenyl)(4-quinolyl)]{3-[(1-methyl(4-piperidyl))methyl]phenyl}amine]"
10,0.801 to 5,"Clc1cccc(-c2cc(Nc3cccc(CC4CCNCC4)c3)c3ccccc3n2)c1 [Compound I19, [2-(3-chlorophenyl)(4-quinolyl)][3-(4-piperidylmethyl)phenyl]amine]"
11,0.2 to 0.8,"CN(C)Cc1cccc(Nc2cc(-c3cccc(Cl)c3)nc3ccccc23)c1 [Compound I22, [(3-{[2-(3-chlorophenyl)(4-quinolyl)]amino}phenyl)methyl]dimethylamine]"
12,0.801 to 5,"COc1ccc(-c2cc(Nc3ccc(CN4CCCCC4)cc3)c3ccccc3n2)cc1 [Compound I23, [2-(4-methoxyphenyl)(4-quinolyl)][4-(piperidylmethyl)phenyl]amine]"
13,0.801 to 5,"COc1ccc(-c2cc(Nc3cccc(CC4CCN(S(C)(=O)=O)CC4)c3)c3ccccc3n2)cc1 [Compound I28, 4-[(3-{[2-(4-methoxyphenyl)(4-quinolyl)]amino}phenyl)methyl]-1-(methylsulfonyl)piperidine]"
14,0.2 to 0.8,"CCN1CCC(Cc2cccc(Nc3cc(-c4ccc(OC)cc4)nc4ccccc34)c2)CC1 [Compound I30, {3-[(1-ethyl(4-piperidyl))methyl]phenyl}[2-(4-methoxyphenyl)(4-quinolyl)]amine]"
15,0.801 to 5,"COc1ccc(-c2cc(Nc3ccc(CC4CCNCC4)cc3)c3ccccc3n2)cc1 [Compound I32, [2-(4-methoxyphenyl)(4-quinolyl)][4-(4-piperidylmethyl)phenyl]amine]"
16,0.801 to 5,"CCN1CCC(Cc2ccc(Nc3cc(-c4ccc(OC)cc4)nc4ccccc34)cc2)CC1 [Compound I33, {4-[(1-ethyl(4-piperidyl))methyl]phenyl}[2-(4-methoxyphenyl)(4-quinolyl)]amine]"
17,0.801 to 5,"COc1ccc(-c2cc(Nc3ccc(CC4CCN(C(C)=O)CC4)cc3)c3ccccc3n2)cc1 [Compound I34, 1-acetyl-4-[(4-{[2-(4-methoxyphenyl)(4-quinolyl)]amino}phenyl)methyl]piperidine]"

# Further lines, the molecule ahead of its results:
row,SMILES,IC50 [µM]
1,"COc1ccc(-c2cc(NCCc3ccc(F)cc3)c3ccccc3n2)cc1 [Compound G87, [2-(4-fluorophenyl)ethyl][2-(4-methoxyphenyl)(4-quinolyl)]amine]",0.801 to 5
2,"CCN(CC)C(=O)c1ccc(-c2cc(NCCCN3CCCCC3)c3ccccc3n2)cc1 [Compound I1, N,N-diethyl-4-(4-((3-(piperidin-1-yl)propyl)amino)quinolin-2-yl)benzamide]",0.2 to 0.8
3,"c1ccc2c(NCCCN3CCCCC3)cc(-c3ccc(OC4CCCCO4)cc3)nc2c1 (centres unmarked) [Compound I1I3, [2-(4-(2H-3,4,5,6-tetrahydropyran-2-yloxy)phenyl)(4-quinolyl)](3-piperidylpropyl)amine]",0.801 to 5
4,"CN(C)Cc1cccc(Nc2cc(-c3ccc(C(N)=O)cc3)nc3ccccc23)c1 [Compound I4, 4-[4-({3-[(dimethylamino)methyl]phenyl}amino)-2-quinolyl]benzamide]",> 5
5,"NC(=O)c1ccc(-c2cc(Nc3cccc(CN4CCCC4)c3)c3ccccc3n2)cc1 [Compound I5, 4-(4-{[3-(pyrrolidinylmethyl)phenyl]amino}-2-quinolyl)benzamide]",> 5
6,"Fc1cc(Cl)ccc1-c1cc(Nc2cccc(CC3CCNCC3)c2)c2ccccc2n1 [Compound I7, [2-(4-chloro-2-fluorophenyl)(4-quinolyl)][3-(4-piperidylmethyl)phenyl]amine]",0.801 to 5
7,"Fc1cc(Cl)ccc1-c1cc(Nc2ccc(CN3CCCCC3)cc2)c2ccccc2n1 [Compound I8, [2-(4-chloro-2-fluorophenyl)(4-quinolyl)][4-(piperidylmethyl)phenyl]amine]",0.801 to 5
8,"CN(C)Cc1cc(CO)cc(Nc2cc(-c3cccc(Cl)c3)nc3ccccc23)c1 [Compound I13, (5-[(dimethylamino)methyl]-3-{[2-(3-chlorophenyl)(4-quinolyl)]amino}phenyl)methan-1-ol]",0.801 to 5
9,"CN(C)c1cccc(Nc2cc(-c3cccc(Cl)c3)nc3ccccc23)c1 [Compound I14, (3-{[2-(3-chlorophenyl)(4-quinolyl)]amino}phenyl)dimethylamine]",0.801 to 5
10,"Clc1cccc(-c2cc(Nc3cccc(CC4CCN(Cc5ccccc5)CC4)c3)c3ccccc3n2)c1 [Compound I17, [2-(3-chlorophenyl)(4-quinolyl)](3-{[1-benzyl(4-piperidyl)]methyl}phenyl)amine]",0.801 to 5
11,"Clc1cccc(-c2cc(Nc3cccc(CC4CCNCC4)c3)c3ccccc3n2)c1 [Compound I20, [2-(3-chlorophenyl)(4-quinolyl)][3-(4-piperidylmethyl)phenyl]amine]",0.801 to 5
12,"Clc1cccc(-c2cc(Nc3ccccc3CC3CCNCC3)c3ccccc3n2)c1 [Compound I21, [2-(3-chlorophenyl)(4-quinolyl)][2-(4-piperidylmethyl)phenyl]amine]",0.801 to 5
13,"COc1ccc(-c2cc(NCCC3CCCN3C)c3ccccc3n2)cc1 (centres unmarked) [Compound I24, [2-(4-methoxyphenyl)(4-quinolyl)][2-(1-methylpyrrolidin-2-yl)ethyl]amine]",0.801 to 5
14,"COc1ccc(-c2cc(Nc3cccc(N(C)C)c3)c3ccccc3n2)cc1 [Compound I25, (3-{[2-(4-methoxyphenyl)(4-quinolyl)]amino}phenyl)dimethylamine]",0.801 to 5
15,"COc1ccc(-c2cc(Nc3ccc(CN(C)C)cc3)c3ccccc3n2)cc1 [Compound I26, [(4-{[2-(4-methoxyphenyl)(4-quinolyl)]amino}phenyl)methyl]dimethylamine]",0.801 to 5
16,"COc1ccc(-c2cc(Nc3cccc(Cc4nn[nH]n4)c3)c3ccccc3n2)cc1 [Compound I27, [2-(4-methoxyphenyl)(4-quinolyl)][3-(2H-1,2,3,4-tetraazol-5-ylmethyl)phenyl]amine]",0.801 to 5
17,"COc1ccc(-c2cc(Nc3cccc(CC4CCN(C(C)=O)CC4)c3)c3ccccc3n2)cc1 [Compound I29, 1-acetyl-4-[(3-{[2-(4-methoxyphenyl)(4-quinolyl)]amino}phenyl)methyl]piperidine]",0.2 to 0.8
18,"COc1ccc(-c2cc(Nc3cccc(CC4CCN(C)CC4)c3)c3ccccc3n2)cc1 [Compound I31, [2-(4-methoxyphenyl)(4-quinolyl)]{3-[(1-methyl(4-piperidyl))methyl]phenyl}amine]",0.2 to 0.8
19,"COc1ccc(-c2cc(Nc3ccc(CC4CCN(S(C)(=O)=O)CC4)cc3)c3ccccc3n2)cc1 [Compound I35, 4-[(4-{[2-(4-methoxyphenyl)(4-quinolyl)]amino}phenyl)methyl]-1-(methylsulfonyl)piperidine]",0.801 to 5
20,"COc1ccc(-c2cc(Nc3cccc(CC#N)c3)c3ccccc3n2)cc1 [Compound I36, 2-(3-{[2-(4-methoxyphenyl)-4-quinolyl]amino}phenyl)ethanenitrile]",0.801 to 5
21,"COc1ccc(-c2cc(Nc3ccccc3CC3CCN(C)CC3)c3ccccc3n2)cc1 [Compound I37, [2-(4-methoxyphenyl)(4-quinolyl)]{2-[(1-methyl(4-piperidyl))methyl]phenyl}amine]",> 5
